In US8642532B2, “Excipients for protein stabilization” (priority 2007, dated 2014):

Experiments:
[1] = target: T1, BSA (Bos taurus, UniProt P02769); test: Reduction of aggregation of BSA induced by t-butanol, SEC HPLC; format: physicochemical, Bovine; conditions: BSA precipitated with t-butanol, re-dissolved in PBS
T1 construct: BSA stock solution (35%, in water, 0.85% sodium chloride, from Sigma); purchased Sigma / Sigma Aldrich
Method: To three separate test tubes containing 0.050 ml of BSA (35%, 0.85% sodium chloride) and 0.050 ml of phosphate buffer (50 mM, pH 7.4), were respectively added 0.010 ml of water, 0.010 mll of 2-formylbenzenesulfonic acid sodium salt (75 mg/ml, pH 8), and 0.010 ml of pyridoxal phosphate (100 mg/ml, pH 7.4). To each of the three tubes were then added 0.50 ml of PEG solution (75%, molecular weight 3400) followed by centrifugation to give some precipitate. The three supernatants were collected to have BSA at saturated concentrations, and to them were separately added 0.50 ml of t-butanol to have more BSA precipitates after centrifugation. The crops of precipitates from t-butanol were washed with t-butanol twice (0.75 ml each) and re-dissolved in PBS buffer (50 mM sodium phosphate, pH 7.4, 0.85% sodium chloride) for SEC HPLC analysis. Plain BSA produced about 75% of aggregates, the sample with 2-formylbenzenesulfonic acid produced about 60% of aggregates, the sample with pyridoxal phosphate produced less than 50% of aggregates.

[2] = target: T2, Bovine Serum Albumin (BSA) (Bos taurus, UniProt P02769); test: Inhibition of thermal aggregation of BSA, SEC HPLC; format: physicochemical; conditions: 65° C., BSA 1.75 mg/ml, excipient 11.25 mg/ml, pH 7.4
T2 construct: BSA stock solution (35%, in water, 0.85% sodium chloride, from Sigma); purchased Sigma / Sigma Aldrich
T2 sequence (P02769 25-607): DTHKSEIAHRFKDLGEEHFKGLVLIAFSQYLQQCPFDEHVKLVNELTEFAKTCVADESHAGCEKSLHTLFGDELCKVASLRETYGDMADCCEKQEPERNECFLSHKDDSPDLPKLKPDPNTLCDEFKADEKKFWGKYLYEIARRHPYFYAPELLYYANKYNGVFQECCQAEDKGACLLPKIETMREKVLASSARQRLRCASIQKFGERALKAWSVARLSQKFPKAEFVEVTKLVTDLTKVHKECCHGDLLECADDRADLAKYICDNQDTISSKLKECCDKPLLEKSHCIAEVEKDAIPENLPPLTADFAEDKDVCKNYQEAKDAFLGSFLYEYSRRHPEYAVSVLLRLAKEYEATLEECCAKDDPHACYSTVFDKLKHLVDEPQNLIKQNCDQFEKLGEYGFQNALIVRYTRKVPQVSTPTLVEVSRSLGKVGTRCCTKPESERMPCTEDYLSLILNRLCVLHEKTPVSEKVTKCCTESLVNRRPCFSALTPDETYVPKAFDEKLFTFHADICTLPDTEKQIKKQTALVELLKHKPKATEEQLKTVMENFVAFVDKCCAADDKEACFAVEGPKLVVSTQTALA
Method: A 0.050 ml of BSA stock solution (35%, in water, 0.85% sodium chloride, from Sigma) was diluted into 0.450 ml of sodium phosphate buffer (50 mM, pH 7.4, 0.85% sodium chloride) to give a BSA solution at concentration of 35 mg/ml. An excipient, 2-formylbenzenesulfonic acid, sodium salt (Aldrich, 75%), was made into a solution in water (HPLC grade) at concentration of 75 mg/ml, and its pH was adjusted to 8 using dilute hydrochloric acid.
An aliquot of 0.050 ml of the above stock BSA solution (35 mg/ml) was diluted into PBS buffer (pH 7.4, 0.80 ml), and 0.15 ml of the excipient solution was added to it to make a BSA concentration of 1.75 mg/ml, and the excipient of 11.25 mg/ml. A separate sample was prepared without the addition of the excipient. Both samples in capped glass tubes are incubated at 65° C. […] […] SEC column: TSK gel G3000 SW, 7.5×300 mm, Tosoh Biosciences, part number 05789. Mobile phase: 50 mM phosphate buffer, pH 7.4, 0.85% sodium chloride. Flow rate: 1.0 ml/min. Detection: 280 nm Instrument: BuckChrom BLC-20.

[3] = target: T3, Myoglobin (Horse Skeleton) (Equus caballus, UniProt P68082); test: Inhibition of myoglobin thermal aggregation at 65° C.; format: physicochemical
T3 construct: Myoglobin (Horse Skeleton, Sigma) was made into a stock solution (10 mg/ml); purchased Sigma; host or cells: horse skeletal muscle ('Horse Skeleton' [sic])
T3 sequence (P68082 whole entry): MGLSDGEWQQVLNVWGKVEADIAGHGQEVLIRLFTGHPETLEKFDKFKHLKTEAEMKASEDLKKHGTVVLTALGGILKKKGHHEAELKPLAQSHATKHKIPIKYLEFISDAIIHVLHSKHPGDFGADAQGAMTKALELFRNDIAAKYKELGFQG
Method: Myoglobin (Horse Skeleton, Sigma) was made into a stock solution (10 mg/ml) in sodium bicarbonate buffer (0.1 M, pH 9.0). This solution (0.5 ml) was then mixed with various excipient stock solutions (0.10 ml) to provide a series of test samples with the same final myoglobin concentration and varying excipient concentrations ([X]). Then the samples in sealed test tubes were inserted into wells of heating block that was pre-set at 65° C., and the incubation was continued over a period of time, to observe the formation of fibrillation precipitates (PPT).

[4] = target: T1, BSA; test: Screening of excipients at pH 6.2 for capacity to deter BSA from forming a gel; format: physicochemical, Bovine; conditions: for Results, 65° C., 60 minutes: BSA 175 mg/ml
Method: Various excipients were tested for their capacity to deter BSA from forming a gel, using sucrose as a reference, in malonic acid buffer (25 mM), incubated at 65° C. for 60 minutes. The excipients used were sucrose, 4-formylbenzene-1,3-disulfonic acid, 4-formylbenzoic acid, phenylglyoxylic acid, glyoxylic acid. (Tables 2 through 6).

[5] = target: T4, Humulin R (zinc insulin) (Homo sapiens, UniProt P01308); test: Inhibition of zinc insulin fibrillation by glyoxylic acid, rotator at room temperature; format: physicochemical; conditions: containing glyoxylic acid, conditions as in Example 11, rotator
T4 construct: purchased
T4 sequence (P01308 25-54 limits assumed): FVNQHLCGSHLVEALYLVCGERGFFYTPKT
T4 sequence (P01308 90-110 limits assumed): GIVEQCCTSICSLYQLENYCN
Method: A solution of zinc-free recombinant human insulin was prepared in phosphate buffer (50 mM, pH 7.0, no sodium chloride) at concentration of 1.0 mg/ml, containing 0 and 20 mM glyoxylic acid. Commercial NovoRapid (Novo Nordisk, 100 IU/ml) was diluted with phosphate buffer to 25 IU/ml, with and without glyoxylic acid (0 or 20 mM). Humalog 25 (100 IU/ml, Eli Lilly) was centrifuged to collect the supernatant, and the LisPro concentration was assumed to be 25 IU/ml. Then two LisPro samples were made with and without glyoxylic acid (0 or 20 mM) with assumed final LisPro concentration of 20 IU/ml. Each of the samples (1.0 ml) was transferred into a capped 10 ml test tube, and loaded onto a rotator that was set at 12 rotations per minute at room temperature. […] Conditions were as in Example 11 above, but using commercial Humulin R (100 IU/ml).

[6] = target: T5, zinc-free recombinant human insulin, NovoRapid, LisPro (Homo sapiens, UniProt P01308); test: Inhibition of insulin fibrillation by glyoxylic acid, rotator at room temperature; format: physicochemical; conditions: 20 mM glyoxylic acid, phosphate buffer pH 7.0, room temperature, rotator 12 rotations per minute
T5 construct: A solution of zinc-free recombinant human insulin was prepared in phosphate buffer
T5 sequence (P01308 25-54 limits assumed): as the sequence (P01308 25-54 limits assumed) above
Method: A solution of zinc-free recombinant human insulin was prepared in phosphate buffer (50 mM, pH 7.0, no sodium chloride) at concentration of 1.0 mg/ml, containing 0 and 20 mM glyoxylic acid. Commercial NovoRapid (Novo Nordisk, 100 IU/ml) was diluted with phosphate buffer to 25 IU/ml, with and without glyoxylic acid (0 or 20 mM). Humalog 25 (100 IU/ml, Eli Lilly) was centrifuged to collect the supernatant, and the LisPro concentration was assumed to be 25 IU/ml. Then two LisPro samples were made with and without glyoxylic acid (0 or 20 mM) with assumed final LisPro concentration of 20 IU/ml. Each of the samples (1.0 ml) was transferred into a capped 10 ml test tube, and loaded onto a rotator that was set at 12 rotations per minute at room temperature.

[7] = target: T1, BSA; test: Inhibition of BSA thermal aggregation (gel/solid formation) at 65° C. over 60 min, phosphate buffer; format: physicochemical, Bovine
Method: […] All samples were inserted into wells of heating block that was preset at 65° C.
Ten microliter of the above clear solutions were each diluted with 1.0 ml of phosphate buffer (pH 7.4), and a reference sample of BSA solutions of 2.5 mg/ml was prepared in the same buffer. Small aliquot of 0.10 ml of all the five diluted samples were analyzed on SEC HPLC (TSK gel G 3000 SW, 5 mm×300 mm), eluted with 50 mM sodium phosphate buffer (pH 7.4) containing 0.85% sodium chloride at flow rate of 1.0 ml/min monitored at 280 nm.

[8] = pH 9.0, 5 weeks, one cell for all [X] of the excipient
[9] = pH 9.0, 1 days, one cell for all [X] of the excipient
[10] = pH 9.0, 2 days, one cell for all [X] of the excipient
[11] = pH 9.0, 4 days, one cell for all [X] of the excipient
[12] = malonate 25 mM pH 6.2, excipient 9.4 mg/ml
[13] = malonate 25 mM pH 6.2, excipient 18.8 mg/ml
[14] = malonate 25 mM pH 6.2, excipient 37.5 mg/ml

T1 sequence (P02769 25-607): as the sequence (P02769 25-607) above

O=Cc1ccccc1S(=O)(=O)[O-].[Na+] [2-formylbenzenesulfonic acid, 2-formylbenzenesulfonic acid, sodium salt]
Aggregates produced [1]: about 60% | BSA aggregation on SEC HPLC ([2]; 40 minutes): no significant change of BSA | BSA aggregation on SEC HPLC ([2]; 60 minutes): aggregates started to show up in an insignificant amount

O=C(O)C(=O)c1ccccc1 [Phenylglyoxylic Acid]
Formation of fibrillation precipitates (PPT) [3, 8]: Precipitate | Formation of fibrillation precipitates (PPT) [3, 9]: Precipitate (PPT) | Formation of fibrillation precipitates (PPT) [3, 10]: Precipitate | Formation of fibrillation precipitates (PPT) [3, 11]: Precipitate | Results, 65° C., 60 minutes [4, 12]: Clear | Results, 65° C., 60 minutes [4, 13]: Clear | Results, 65° C., 60 minutes [4, 14]: Clear

O=CC(=O)O [Glyoxylic Acid]
Appearance of Humulin R solution (fibrillation) [5]: remained clear six days before turning cloudy | Formation of fibrillation precipitates (PPT) [3, 8]: Precipitate | Formation of fibrillation precipitates (PPT) ([3]; pH 9.0, 1 days, higher part of [X] 16.7/41.7/83.3 mM (cell span not shown)): Clear | Formation of fibrillation precipitates (PPT) ([3]; pH 9.0, 1 days, lower part of [X] 16.7/41.7/83.3 mM (cell span not shown)): PPT | Formation of fibrillation precipitates (PPT) ([3]; pH 9.0, 2 days, higher part of [X] 16.7/41.7/83.3 mM (cell span not shown)): Clear | Formation of fibrillation precipitates (PPT) ([3]; pH 9.0, 2 days, lower part of [X] 16.7/41.7/83.3 mM (cell span not shown)): PPT | Formation of fibrillation precipitates (PPT) [3, 11]: Precipitate | Appearance of insulin solution (fibrillation) [6]: stayed in clear solutions beyond four weeks | Results, 65° C., 60 minutes ([4]; malonate 25 mM pH 6.2, excipient 5.8 mg/ml): Clear | Results, 65° C., 60 minutes ([4]; malonate 25 mM pH 6.2, excipient 11.5 mg/ml): Clear | Results, 65° C., 60 minutes ([4]; malonate 25 mM pH 6.2, excipient 23 mg/ml): Clear

O=Cc1cc(C(=O)O)ccc1O [3-Formyl-4-hydroxylbenzoic Acid]
Formation of fibrillation precipitates (PPT) [3, 8]: Precipitate | Formation of fibrillation precipitates (PPT) [3, 9]: Precipitate | Formation of fibrillation precipitates (PPT) [3, 10]: Precipitate | Formation of fibrillation precipitates (PPT) [3, 11]: Precipitate

OC[C@H]1O[C@@](CO)(O[C@H]2O[C@H](CO)[C@@H](O)[C@H](O)[C@H]2O)[C@@H](O)[C@@H]1O [Sucrose, sucrose, reference compound]
Results, 65° C., 60 minutes ([4]; malonate 25 mM pH 6.2, excipient 75 mg/ml): Pale Gel | Results, 65° C., 60 minutes ([4]; malonate 25 mM pH 6.2, excipient 125 mg/ml): Pale Gel | Results, 65° C., 60 minutes ([4]; malonate 25 mM pH 6.2, excipient 175 mg/ml): Gel | Power to prevent BSA from turning into gel or solid (summary in words) ([4]; pH 6.2, 65° C., 60 minutes, all concentrations tested): does not have strong power to prevent BSA from turning into gel or solid

O=Cc1ccc(C(=O)O)cc1 [4-Formylbenzoic acid]
Results, 65° C., 60 minutes [4, 12]: Clear | Results, 65° C., 60 minutes [4, 13]: Clear | Results, 65° C., 60 minutes [4, 14]: Clear

O=Cc1ccc(S(=O)(=O)O)cc1S(=O)(=O)O [4-Formyl-1,3-benzenedisulfonic Acid, 4-Formyl-1,3-benzenedisulfonic acid]
Rank in deterring myoglobin from fibrillation (summary in words) ([3]; pH 9.0): best among this group | Formation of fibrillation precipitates (PPT) [3, 8]: Clear | Formation of fibrillation precipitates (PPT) [3, 9]: Clear | Formation of fibrillation precipitates (PPT) [3, 10]: Clear | Formation of fibrillation precipitates (PPT) [3, 11]: Clear | Results, 65° C., 60 minutes ([4]; malonate 25 mM pH 6.2, excipient 7.1 mg/ml): Clear | Results, 65° C., 60 minutes ([4]; malonate 25 mM pH 6.2, excipient 14.4 mg/ml): Clear | Results, 65° C., 60 minutes ([4]; malonate 25 mM pH 6.2, excipient 28.8 mg/ml): Clear | Results, 65° C., 60 minutes ([7]; BSA 262.5 mg/ml, phosphate 25 mM pH 7.4, excipient 12.5 mg/ml): Clear | Results, 65° C., 60 minutes ([7]; BSA 262.5 mg/ml, phosphate 25 mM pH 7.4, excipient 12.5 mg/ml, listed as 4-Formyl-1,3-benzenedisulfonic acid): prevents BSA (262 mg/ml) from turning into gellified solid | Results, 65° C., 60 minutes ([7]; BSA 262.5 mg/ml, phosphate 25 mM pH 7.4, excipient 25 mg/ml): Clear | Results, 65° C., 60 minutes ([7]; BSA 262.5 mg/ml, phosphate 25 mM pH 7.4, excipient 50 mg/ml): Clear | Results, 65° C., 60 minutes ([7]; repeated at pH 6.8, excipient 12.5 mg/ml): remained as clear solution
